Test results taken from the NIST ThermoML archive (doi:10.1016/j.tca.2012.10.024).
± gives the expanded uncertainty stated by the source.

Assays:
[1] = relative permittivity at zero frequency (dimensionless); xn = mol fraction of the nth substance listed; details: 101 kPa, Liquid, Parallel plate capacitor
[2] = refractive index (Na D-line) (dimensionless); xn = mol fraction of the nth substance listed; details: 101 kPa, Liquid, Standard Abbe refractometry

COCCOCCOCCOCCOC [2,5,8,11,14-pentaoxapentadecane] + CCCCCCCC
Details | refractive index, 293.15 K | refractive index, 298.15 K | refractive index, 303.15 K | relative permittivity at zero frequency, 293.15 K | relative permittivity at zero frequency, 298.15 K | relative permittivity at zero frequency, 303.15 K
[1], x1 = 0.033 | – | – | – | 2.107 ± 0.13 | 2.098 ± 0.13 | 2.088 ± 0.12
[1], x1 = 0.0659 | – | – | – | 2.254 ± 0.14 | 2.242 ± 0.14 | 2.23 ± 0.13
[1], x1 = 0.0998 | – | – | – | 2.413 ± 0.14 | 2.398 ± 0.14 | 2.382 ± 0.14
[1], x1 = 0.133 | – | – | – | 2.577 ± 0.15 | 2.558 ± 0.15 | 2.538 ± 0.15
[1], x1 = 0.1645 | – | – | – | 2.736 ± 0.16 | 2.715 ± 0.16 | 2.693 ± 0.16
[1], x1 = 0.2003 | – | – | – | 2.922 ± 0.17 | 2.896 ± 0.17 | 2.87 ± 0.17
[1], x1 = 0.2488 | – | – | – | 3.19 ± 0.19 | 3.158 ± 0.19 | 3.126 ± 0.19
[1], x1 = 0.3002 | – | – | – | 3.476 ± 0.21 | 3.438 ± 0.21 | 3.4 ± 0.2
[1], x1 = 0.3486 | – | – | – | 3.762 ± 0.23 | 3.718 ± 0.22 | 3.675 ± 0.22
[1], x1 = 0.3951 | – | – | – | 4.03 ± 0.24 | 3.981 ± 0.24 | 3.931 ± 0.24
[1], x1 = 0.4461 | – | – | – | 4.347 ± 0.26 | 4.291 ± 0.26 | 4.234 ± 0.25
[1], x1 = 0.5092 | – | – | – | 4.738 ± 0.28 | 4.674 ± 0.28 | 4.61 ± 0.28
[1], x1 = 0.5516 | – | – | – | 5.005 ± 0.3 | 4.937 ± 0.3 | 4.867 ± 0.29
[1], x1 = 0.6003 | – | – | – | 5.313 ± 0.32 | 5.238 ± 0.31 | 5.163 ± 0.31
[1], x1 = 0.6409 | – | – | – | 5.578 ± 0.34 | 5.499 ± 0.33 | 5.42 ± 0.33
[1], x1 = 0.693 | – | – | – | 5.909 ± 0.35 | 5.823 ± 0.35 | 5.736 ± 0.34
[1], x1 = 0.7072 | – | – | – | 6.004 ± 0.36 | 5.916 ± 0.35 | 5.827 ± 0.35
[1], x1 = 0.7515 | – | – | – | 6.298 ± 0.38 | 6.205 ± 0.37 | 6.111 ± 0.37
[1], x1 = 0.8002 | – | – | – | 6.622 ± 0.4 | 6.523 ± 0.39 | 6.421 ± 0.39
[1], x1 = 0.8461 | – | – | – | 6.943 ± 0.42 | 6.838 ± 0.41 | 6.732 ± 0.4
[1], x1 = 0.8985 | – | – | – | 7.279 ± 0.44 | 7.168 ± 0.43 | 7.057 ± 0.42
[1], x1 = 0.9441 | – | – | – | 7.585 ± 0.46 | 7.469 ± 0.45 | 7.351 ± 0.44
[2], x1 = 0.0503 | 1.3993 ± 0.0007 | 1.3969 ± 0.0007 | 1.3946 ± 0.0007 | – | – | –
[2], x1 = 0.1003 | 1.4011 ± 0.0007 | 1.3987 ± 0.0007 | 1.3965 ± 0.0007 | – | – | –
[2], x1 = 0.1515 | 1.4031 ± 0.0007 | 1.4007 ± 0.0007 | 1.3985 ± 0.0007 | – | – | –
[2], x1 = 0.2061 | 1.4052 ± 0.0007 | 1.4028 ± 0.0007 | 1.4006 ± 0.0007 | – | – | –
[2], x1 = 0.245 | 1.4067 ± 0.0007 | 1.4043 ± 0.0007 | 1.4021 ± 0.0007 | – | – | –
[2], x1 = 0.305 | 1.4091 ± 0.0007 | 1.4067 ± 0.0007 | 1.4045 ± 0.0007 | – | – | –
[2], x1 = 0.3569 | 1.4111 ± 0.0007 | 1.4087 ± 0.0007 | 1.4065 ± 0.0007 | – | – | –
[2], x1 = 0.4054 | 1.4127 ± 0.0007 | 1.4106 ± 0.0007 | 1.4084 ± 0.0007 | – | – | –
[2], x1 = 0.4487 | 1.4144 ± 0.0007 | 1.4122 ± 0.0007 | 1.41 ± 0.0007 | – | – | –
[2], x1 = 0.5043 | 1.4163 ± 0.0007 | 1.4142 ± 0.0007 | 1.4121 ± 0.0007 | – | – | –
[2], x1 = 0.5537 | 1.4182 ± 0.0007 | 1.4159 ± 0.0007 | 1.4138 ± 0.0007 | – | – | –
[2], x1 = 0.5963 | 1.4195 ± 0.0007 | 1.4173 ± 0.0007 | 1.4151 ± 0.0007 | – | – | –
[2], x1 = 0.6473 | 1.4213 ± 0.0007 | 1.4191 ± 0.0007 | 1.417 ± 0.0007 | – | – | –
[2], x1 = 0.693 | 1.4228 ± 0.0007 | 1.4208 ± 0.0007 | 1.4186 ± 0.0007 | – | – | –
[2], x1 = 0.7515 | 1.4248 ± 0.0008 | 1.4227 ± 0.0008 | 1.4207 ± 0.0008 | – | – | –
[2], x1 = 0.8067 | 1.4268 ± 0.0008 | 1.4248 ± 0.0008 | 1.423 ± 0.0008 | – | – | –
[2], x1 = 0.8475 | 1.4281 ± 0.0008 | 1.426 ± 0.0008 | 1.4239 ± 0.0008 | – | – | –
[2], x1 = 0.8941 | 1.4295 ± 0.0008 | 1.4275 ± 0.0008 | 1.4256 ± 0.0008 | – | – | –
[2], x1 = 0.947 | 1.431 ± 0.0008 | 1.429 ± 0.0008 | 1.4271 ± 0.0008 | – | – | –

COCCOCCOCCOCCOC [2,5,8,11,14-pentaoxapentadecane] + CCCCCO
Details | refractive index, 293.15 K | refractive index, 298.15 K | refractive index, 303.15 K | relative permittivity at zero frequency, 293.15 K | relative permittivity at zero frequency, 298.15 K | relative permittivity at zero frequency, 303.15 K
[1], x2 = 0.0505 | – | – | – | 7.99 ± 0.48 | 7.863 ± 0.47 | 7.737 ± 0.46
[1], x2 = 0.1002 | – | – | – | 7.97 ± 0.48 | 7.843 ± 0.47 | 7.715 ± 0.46
[1], x2 = 0.1509 | – | – | – | 8.043 ± 0.48 | 7.911 ± 0.47 | 7.779 ± 0.47
[1], x2 = 0.1919 | – | – | – | 8.041 ± 0.48 | 7.906 ± 0.47 | 7.771 ± 0.47
[1], x2 = 0.2458 | – | – | – | 8.132 ± 0.49 | 7.993 ± 0.48 | 7.854 ± 0.47
[1], x2 = 0.291 | – | – | – | 8.15 ± 0.49 | 8.009 ± 0.48 | 7.866 ± 0.47
[1], x2 = 0.3384 | – | – | – | 8.271 ± 0.5 | 8.119 ± 0.49 | 7.968 ± 0.48
[1], x2 = 0.3986 | – | – | – | 8.344 ± 0.5 | 8.186 ± 0.49 | 8.029 ± 0.48
[1], x2 = 0.4554 | – | – | – | 8.523 ± 0.51 | 8.35 ± 0.5 | 8.18 ± 0.49
[1], x2 = 0.493 | – | – | – | 8.615 ± 0.52 | 8.438 ± 0.51 | 8.26 ± 0.5
[1], x2 = 0.5496 | – | – | – | 8.857 ± 0.53 | 8.662 ± 0.52 | 8.469 ± 0.51
[1], x2 = 0.5931 | – | – | – | 9.027 ± 0.54 | 8.819 ± 0.53 | 8.615 ± 0.52
[1], x2 = 0.6455 | – | – | – | 9.353 ± 0.56 | 9.122 ± 0.55 | 8.896 ± 0.53
[1], x2 = 0.6979 | – | – | – | 9.71 ± 0.58 | 9.454 ± 0.57 | 9.203 ± 0.55
[1], x2 = 0.7424 | – | – | – | 10.138 ± 0.61 | 9.853 ± 0.59 | 9.577 ± 0.57
[1], x2 = 0.7959 | – | – | – | 10.73 ± 0.64 | 10.413 ± 0.62 | 10.103 ± 0.61
[1], x2 = 0.8372 | – | – | – | 11.351 ± 0.68 | 10.992 ± 0.66 | 10.643 ± 0.64
[1], x2 = 0.8679 | – | – | – | 11.894 ± 0.71 | 11.506 ± 0.69 | 11.123 ± 0.67
[1], x2 = 0.8987 | – | – | – | 12.519 ± 0.75 | 12.102 ± 0.73 | 11.691 ± 0.7
[1], x2 = 0.9225 | – | – | – | 13.119 ± 0.79 | 12.665 ± 0.76 | 12.217 ± 0.73
[1], x2 = 0.9488 | – | – | – | 13.878 ± 0.83 | 13.383 ± 0.8 | 12.896 ± 0.77
[1], x2 = 0.9793 | – | – | – | 14.929 ± 0.9 | 14.377 ± 0.86 | 13.834 ± 0.83
[2], x2 = 0.0505 | 1.4319 ± 0.0019 | 1.4302 ± 0.0009 | 1.4279 ± 0.0012 | – | – | –
[2], x2 = 0.1002 | 1.4315 ± 0.0009 | 1.4294 ± 0.0009 | 1.4273 ± 0.0009 | – | – | –
[2], x2 = 0.1509 | 1.4305 ± 0.0009 | 1.4286 ± 0.0009 | 1.4265 ± 0.0009 | – | – | –
[2], x2 = 0.1919 | 1.4301 ± 0.0008 | 1.4281 ± 0.0009 | 1.4259 ± 0.0009 | – | – | –
[2], x2 = 0.2458 | 1.4291 ± 0.0009 | 1.4272 ± 0.0009 | 1.4251 ± 0.0009 | – | – | –
[2], x2 = 0.291 | 1.4285 ± 0.0008 | 1.4265 ± 0.0009 | 1.4244 ± 0.0009 | – | – | –
[2], x2 = 0.3384 | 1.4276 ± 0.0008 | 1.4256 ± 0.0008 | 1.4236 ± 0.0008 | – | – | –
[2], x2 = 0.3986 | 1.4265 ± 0.0008 | 1.4246 ± 0.0008 | 1.4225 ± 0.0008 | – | – | –
[2], x2 = 0.4554 | 1.4256 ± 0.0008 | 1.4235 ± 0.0008 | 1.4215 ± 0.0008 | – | – | –
[2], x2 = 0.493 | 1.4248 ± 0.0008 | 1.4229 ± 0.0008 | 1.4207 ± 0.0009 | – | – | –
[2], x2 = 0.5496 | 1.4236 ± 0.0008 | 1.4217 ± 0.0008 | 1.4196 ± 0.0008 | – | – | –
[2], x2 = 0.5931 | 1.4227 ± 0.0008 | 1.4207 ± 0.0008 | 1.4186 ± 0.0008 | – | – | –
[2], x2 = 0.6455 | 1.4214 ± 0.0008 | 1.4194 ± 0.0008 | 1.4174 ± 0.0008 | – | – | –
[2], x2 = 0.6979 | 1.42 ± 0.0008 | 1.4181 ± 0.0008 | 1.416 ± 0.0008 | – | – | –
[2], x2 = 0.7424 | 1.4188 ± 0.0008 | 1.4168 ± 0.0008 | 1.4148 ± 0.0008 | – | – | –
[2], x2 = 0.7959 | 1.4172 ± 0.0008 | 1.4153 ± 0.0008 | 1.4133 ± 0.0008 | – | – | –
[2], x2 = 0.8372 | 1.4159 ± 0.0008 | 1.4141 ± 0.0008 | 1.4121 ± 0.0008 | – | – | –
[2], x2 = 0.8679 | 1.4149 ± 0.0008 | 1.4131 ± 0.0008 | 1.4111 ± 0.0008 | – | – | –
[2], x2 = 0.8987 | 1.4139 ± 0.0008 | 1.4121 ± 0.0008 | 1.41 ± 0.0008 | – | – | –
[2], x2 = 0.9225 | 1.413 ± 0.0008 | 1.4112 ± 0.0008 | 1.4092 ± 0.0008 | – | – | –
[2], x2 = 0.9488 | 1.412 ± 0.0008 | 1.4102 ± 0.0008 | 1.4081 ± 0.0008 | – | – | –
[2], x2 = 0.9793 | 1.4109 ± 0.0008 | 1.409 ± 0.0008 | 1.407 ± 0.0008 | – | – | –
